Data reported in patent publication US20060134719A1, “Novel serine protease” (priority 2002, published 2006).
*: point of attachment. AMC = Cc1cc(=O)oc2cc(N*)ccc12; Boc = CC(C)(C)OC(=O)*; OBn = c1ccc(CO*)cc1

Target: T1, signal-FLAG-ARS-SerPDO culture supernatant (SEQ ID NO:2 237th to 464th) (Homo sapiens, UniProt Q7Z410)
T1 construct: made in house; host or cells: HEK293-EBNA
T1 sequence (Q7Z410 203-430): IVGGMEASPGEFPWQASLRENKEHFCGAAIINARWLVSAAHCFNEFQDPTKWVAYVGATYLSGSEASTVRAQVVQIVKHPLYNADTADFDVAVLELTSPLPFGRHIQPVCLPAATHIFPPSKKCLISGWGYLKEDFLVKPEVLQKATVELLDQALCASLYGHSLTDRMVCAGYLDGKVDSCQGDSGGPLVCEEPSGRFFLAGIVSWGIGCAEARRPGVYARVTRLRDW
Test: Enzymatic cleavage of MCA-labeled synthetic peptides by signal-FLAG-ARS-SerPDO culture supernatant
Type: biochemical
Settings: substrate 100 μM in TBS pH 7.5, 37° C.; never obtained with blank vector supernatant
Method: The expression plasmids prepared in Examples 3 to 5 were introduced into HEK293-EBNA cell (Invitrogen) using a transfection reagent (FuGENE™6 transfection reagent; Roche) according to the instruction attached thereto. After the introduction of the plasmids, the culture medium was replaced with a serum-free culture medium within 12 to 16 hours and further incubated for another 48 to 60 hours. The culture supernatant was collected and resulting each liquid culture was centrifuged (3000 rpm, 10 minutes) with a centrifuge (Type 8800; Kubota) to obtain culture supernatants. After removing the culture supernatants, the remaining cells were washed with phosphate buffer (PBS; 10 mM sodium phosphate, pH 7.5) and then recovered by scraping from the culture plate by pipetting with phosphate buffer, and centrifuged with a centrifuge (Type 8800; Kubota) at 3000 rpm for 10 minutes. The resulting precipitate was suspended in phosphate buffer, which was defined as the cell fraction. The culture supernatants obtained by the introduction of pCEP-ARSF-FLAG, pCEP-signal-FLAG-ARS-extracellular and pCEP-signal-FLAG-ARS-SerPD are referred to as ARS-FLAG culture supernatant, signal-FLAG-ARS-extracellular culture supernatant, signal-FLAG-ARS-SerPD culture supernatant and signal-FLAG-ARS-SerPDO culture supernatant, respectively.
The method for detecting enzymatic cleavage activity using a synthetic peptide labeled with MCA (4-methyl-coumaryl-7-amide) in the C terminus was according to the method reported in an academic paper (Yasuoka, S. et al., Am. J. Respir. Cell Mol Biol., Vol. 16, 300-308, 1997), unless otherwise described. […] Subsequently, the fluorescence of AMC (7-amino-4-methyl-coumarin) released from the synthetic peptide by enzymatic cleavage was measured at a wavelength of 460 nm for measurement, using an excitation wavelength of 390 nm with a fluorescent plate reader (Fluostar, SLT).

Substance | cleavage activity of synthetic peptide (fluorescence of released AMC)
Boc-Gln-Arg-Arg-{AMC} | showed the cleavage activity
Boc-Phe-Ser-Arg-{AMC} | showed the cleavage activity
Boc-Glu(OBn)-Ala-Arg-{AMC} | showed the cleavage activity
